According to US8476414B2, “Substrates and internal standards for mass spectrometry detection” (PerkinElmer Health Sciences, Inc., priority 2006, dated 2013):

Experiments:
[1] = Non-enzymatic hydrolysis of substrate in blank sample not containing blood, processed as the dried blood spots; format: physicochemical; details: blank without blood, same assay solution and processing
Method: For each sample, a disk of 3 mm diameter is punched from the areas of dried blood on a filter paper into a micro-centrifuge tube or a well of a 96-well microtiter plate. The blood disk is then incubated directly with an assay solution containing a substrate directed to the Fabry disease. The assay solution is prepared by mixing a 10 mM solution of substrate (4-(Hexadecanoyl-DL-carnitineamido)phenyl-α-D-galactopyranoside), a 1 mM solution of the internal standard for the enzymatic product (4-(Hexadecanoyl-DL-carnitine[C16-d3]amido)phenol), a 1 M solution of Acetylgalactosamine, and a 0.4 M solution of sodium acetate pH 4.6 buffer in a 8:1:3:38 ratio. The assay mixture containing the blood disk is incubated for 15 to 24 hours at 37° Celsius with orbital shaking (150 rpm) in a thermostatic air shaker. […] For the mass spectrometry analysis, the electrospray source is operated in positive mode, and the ions are detected in the parent ion of 176 scan mode. The amount of enzymatic product is calculated from the ion abundance ratio of the product to the internal standard minus that of a blank.
The […] chain for this particular example was chosen to contain 10 carbons and thus decanoyl-carnitine was used in the synthesis of the substrate. […] The final sample solutions were analyzed on a Waters Quattro Micro ESI-triple quadrupole tandem mass spectrometer using a parent ion of 176 scan. […]

[2] = biological target: T1, acid α-galactosidase A (GLA) (Homo sapiens, UniProt P06280); experiment: Dried blood spot enzyme assay with Fabry substrate, tandem mass spectrometry detection of the enzymatic product; format: biochemical; details: with dried blood sample, 15 to 24 hours at 37° Celsius, sodium acetate pH 4.6
T1 construct: from tissue
T1 sequence (P06280 32-429): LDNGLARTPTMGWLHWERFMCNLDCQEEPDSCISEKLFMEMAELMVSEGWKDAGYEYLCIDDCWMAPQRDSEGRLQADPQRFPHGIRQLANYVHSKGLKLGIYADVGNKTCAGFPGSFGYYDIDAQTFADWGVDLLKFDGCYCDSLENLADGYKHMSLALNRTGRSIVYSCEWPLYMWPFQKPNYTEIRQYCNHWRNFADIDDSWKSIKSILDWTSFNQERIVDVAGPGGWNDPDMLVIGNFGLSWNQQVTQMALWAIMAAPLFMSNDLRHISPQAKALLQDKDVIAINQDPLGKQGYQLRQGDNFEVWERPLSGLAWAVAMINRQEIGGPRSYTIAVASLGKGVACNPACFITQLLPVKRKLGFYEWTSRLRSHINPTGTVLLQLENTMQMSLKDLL
Method: For each sample, a disk of 3 mm diameter is punched from the areas of dried blood on a filter paper into a micro-centrifuge tube or a well of a 96-well microtiter plate. The blood disk is then incubated directly with an assay solution containing a substrate directed to the Fabry disease. The assay solution is prepared by mixing a 10 mM solution of substrate (4-(Hexadecanoyl-DL-carnitineamido)phenyl-α-D-galactopyranoside), a 1 mM solution of the internal standard for the enzymatic product (4-(Hexadecanoyl-DL-carnitine[C16-d3]amido)phenol), a 1 M solution of Acetylgalactosamine, and a 0.4 M solution of sodium acetate pH 4.6 buffer in a 8:1:3:38 ratio. The assay mixture containing the blood disk is incubated for 15 to 24 hours at 37° Celsius with orbital shaking (150 rpm) in a thermostatic air shaker. After the incubation period, an aliquot of pure methanol (without the use of chloroform) is added to each tube or well to terminate the enzymatic reaction. Before going into the mass spectrometer, an aliquot of the incubated aliquot is diluted in pure methanol. For the mass spectrometry analysis, the electrospray source is operated in positive mode, and the ions are detected in the parent ion of 176 scan mode. The amount of enzymatic product is calculated from the ion abundance ratio of the product to the internal standard minus that of a blank.

acid α-glucosidase (GAA) = experiment: Dried blood spot enzyme assay with Pompe substrate, tandem mass spectrometry detection of the enzymatic product; format: biochemical, human; details: pH 3.98
Method: An enzymatic reaction using a substrate directed to Pompe disease and the mass spectrometry analysis thereafter is carried out using the method specified in Example 1 with the following exceptions that sodium citrate was used as buffer. The assay solution for Example 2 was prepared by mixing a buffer solution (0.2 M sodium citrate/sodium phosphate, pH 3.98), a solution of 8 mM Acarbose, a solution of 10 mM substrate (4-Decanoyl-DL-carnitineamido)phenyl-α-D-glucopyranoside), and a solution of 1.0 mM internal standard (4-Decanoyl-DL-carnitine[C10-d3]amido)phenol) in a 93:1:4:2 ratio. The rest of the procedure is as indicated in Example 1.
In addition a blank filter paper sample not containing blood was processed following the same procedure as the dried blood spots. The same assay solution containing buffers, substrates, inhibitors and internal standards was used for all three samples. Therefore, all samples received the same concentration of reagents. The final sample solutions were analyzed on a Waters Quattro Micro ESI-triple quadrupole tandem mass spectrometer using a parent ion of 176 scan. The predominant peaks shown in the spectra are those corresponding to the intact substrate, internal standard and corresponding enzymatic product. […]

## CCCCCCCCCCCCCCCC(=O)OC(CC(=O)Nc1ccc(O[C@H]2O[C@H](CO)[C@H](O)[C@H](O)[C@H]2O)cc1)C[N+](C)(C)C (mixture of isomers) [substrate directed to Fabry disease, 4-(Hexadecanoyl-DL-carnitineamido)phenyl-α-D-galactopyranoside]
[1]
  non-enzymatic substrate hydrolysis (product found in blank): minimal amount
[2]
  enzymatic product of the substrate detected by MS/MS: significant amount

## CCCCCCCCCC(=O)OC(CC(=O)Nc1ccc(O[C@H]2O[C@H](CO)[C@@H](O)[C@H](O)[C@H]2O)cc1)C[N+](C)(C)C (mixture of isomers) [substrate directed to Pompe disease, 4-(Decanoyl-DL-carnitineamido)phenyl-α-D-glucopyranoside]
[1]
  non-enzymatic substrate hydrolysis (product found in blank): negligible
Acid α-glucosidase (GAA); dried blood spot of confirmed Pompe positive newborn
  conversion of substrate to product (abundance of product relative to internal standard): no noticeable substrate to product conversion
Acid α-glucosidase (GAA); dried blood spot of healthy newborn
  conversion of substrate to product (abundance of product relative to internal standard): highly noticeable
